# What was measured:
# [1] = compound: CCc1cnn2c(NCc3ccc[n+]([O-])c3)cc(N3CCCC[C@H]3CCO)nc12
# [2] = compound: T1, CN(C)C(=O)c1cc2cnc(Nc3ccc(N4CCNCC4)cn3)nc2n1C1CCCC1 [LEE011/Ribociclib]
# [3] = compound: COc1cccc2c1C(=O)c1c(O)c3c(c(O)c1C2=O)C[C@@](O)(C(=O)CO)C[C@@H]3O[C@H]1C[C@H](N)[C@H](O)[C@H](C)O1 [Doxorubicin]
# [4] = compound: CS(=O)(=O)N1CCN(Cc2cc3nc(-c4cccc5[nH]ncc45)nc(N4CCOCC4)c3s2)CC1 [Pictilisib/GDC0941]
# [5] = compound: Cc1cc(Nc2ncc(Cl)c(Nc3ccccc3S(=O)(=O)C(C)C)n2)c(OC(C)C)cc1C1CCNCC1 [Ceritinib/LDK378]
# [6] = compound: Cc1nn(C)c(COc2ccc(N3CCN(S(=O)(=O)N(C)C)CC3)cc2)c1-c1cccc2c(CCCOc3cccc4ccccc34)c(C(=O)O)n(CCN3CCOCC3)c12
# [7] = compound: C=CC(=O)Nc1ccc(C(=O)Nc2[nH]nc3c2CN(C(=O)N[C@H](CN(C)C)c2ccccc2)C3(C)C)cc1 [YKL-5-124]; assay: increase in dead-cell fraction, 72 h; higher = more death;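 further: breast cancer cell lines in 384-well plates, stained with Hoechst plus LIVE/DEAD far red dye and imaged, cells above an LDR intensity threshold counted dead, Hoechst-negative corpses included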
# [8] = compound: CC(=O)c1c(C)c2cnc(Nc3ccc(N4CCN(CCOCCOCCOCCNC(=O)COc5cccc6c5C(=O)N(C5CCC(=O)NC5=O)C6=O)CC4)cn3)nc2n(C2CCCC2)c1=O [BSJ-03-123]; assay: as above
# [9] = compound: CC(=O)c1c(C)c2cnc(Nc3ccc(N4CCNCC4)cn3)nc2n(C2CCCC2)c1=O; assay: as above
# [10] = compound: CCN1CCN(Cc2ccc(Nc3ncc(F)c(-c4cc(F)c5nc(C)n(C(C)C)c5c4)n3)nc2)CC1; assay: as above
# [11] = compound: CCOc1cc2ncc(C#N)c(Nc3ccc(OCc4ccccn4)c(Cl)c3)c2cc1NC(=O)/C=C/CN(C)C [Neratinib/HKI272]; assay: as above
# [12] = compound: CCc1cnn2c(NCc3ccc[n+]([O-])c3)cc(N3CCCC[C@H]3CCO)nc12; assay: as above
# [13] = compound: T1, LEE011/Ribociclib; assay: as above
# [14] = compound: CN(C)C/C=C/C(=O)Nc1ccc(C(=O)N2CCC[C@@H](Nc3ncc(Cl)c(-c4c[nH]c5ccccc45)n3)C2)cc1 [THZ531]; assay: as above
# [15] = compound: CN(C)C/C=C/C(=O)Nc1ccc(C(=O)Nc2cccc(Nc3ncc(Cl)c(-c4c[nH]c5ccccc45)n3)c2)cc1 [THZ1]; assay: as above
# [16] = compound: CN1CC[C@H](c2c(O)cc(O)c3c(=O)cc(-c4ccccc4Cl)oc23)[C@H](O)C1 [Flavopiridol]; assay: as above
# 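Wherever GR50, 72 h is given: breast cancer and non-malignant breast epithelial cell lines, Deep Dye Drop or Dye Drop imaging, nine half-log doses, GR normalized to time-zero plates and DMSO-only controls.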
cell line,measurement,setting,value
HCC202,"GR50, 72 h",[1],0.0137 µM
same,"GR50, 72 h",[2],> 10 µM
same,"GR50, 72 h",[3],0.0268 µM
same,"GR50, 72 h",[4],0.208 µM
same,"GR50, 72 h",[5],4.75 µM
same,"GR50, 72 h",[6],> 10 µM
same,increase in dead-cell fraction,[7]; 0.001 µM,0.0491
same,increase in dead-cell fraction,[7]; 0.003162 µM,0.0507
same,increase in dead-cell fraction,[7]; 0.01 µM,0.0643
same,increase in dead-cell fraction,[7]; 0.03162 µM,0.0596
same,increase in dead-cell fraction,[7]; 0.1 µM,0.0803
same,increase in dead-cell fraction,[7]; 0.3162 µM,0.0716
same,increase in dead-cell fraction,[7]; 1 µM,0.0671
same,increase in dead-cell fraction,[7]; 3.162 µM,0.081
same,increase in dead-cell fraction,[7]; 10 µM,0.213
same,increase in dead-cell fraction,[8]; 0.001 µM,0.0092
same,increase in dead-cell fraction,[8]; 0.003162 µM,0.0099
same,increase in dead-cell fraction,[8]; 0.01 µM,0.0404
same,increase in dead-cell fraction,[8]; 0.03162 µM,0.0154
same,increase in dead-cell fraction,[8]; 0.1 µM,0.0009
same,increase in dead-cell fraction,[8]; 0.3162 µM,0.0019
same,increase in dead-cell fraction,[8]; 1 µM,0.0243
same,increase in dead-cell fraction,[8]; 3.162 µM,0.0201
same,increase in dead-cell fraction,[8]; 10 µM,0.126
same,increase in dead-cell fraction,[9]; 0.0003162 µM,0.0137
same,increase in dead-cell fraction,[9]; 0.001 µM,-0.0003
same,increase in dead-cell fraction,[9]; 0.003162 µM,0.0115
same,increase in dead-cell fraction,[9]; 0.01 µM,0.0189
same,increase in dead-cell fraction,[9]; 0.03162 µM,0.0085
same,increase in dead-cell fraction,[9]; 0.1 µM,0.0163
same,increase in dead-cell fraction,[9]; 0.3162 µM,0.0112
same,increase in dead-cell fraction,[9]; 1 µM,0.0306
same,increase in dead-cell fraction,[9]; 3.162 µM,0.0531
same,increase in dead-cell fraction,[10]; 0.001 µM,0.0017
same,increase in dead-cell fraction,[10]; 0.003162 µM,0.0045
same,increase in dead-cell fraction,[10]; 0.01 µM,0.0025
same,increase in dead-cell fraction,[10]; 0.03162 µM,0.0166
same,increase in dead-cell fraction,[10]; 0.1 µM,0.02
same,increase in dead-cell fraction,[10]; 0.3162 µM,0.0336
same,increase in dead-cell fraction,[10]; 1 µM,0.0207
same,increase in dead-cell fraction,[10]; 3.162 µM,0.049
same,increase in dead-cell fraction,[10]; 10 µM,0.0763
same,increase in dead-cell fraction,[11]; 0.0003162 µM,-0.0093
same,increase in dead-cell fraction,[11]; 0.001 µM,-0.0087
same,increase in dead-cell fraction,[11]; 0.003162 µM,0.0183
same,increase in dead-cell fraction,[11]; 0.01 µM,0.0049
same,increase in dead-cell fraction,[11]; 0.03162 µM,0.0466
same,increase in dead-cell fraction,[11]; 0.1 µM,0.0644
same,increase in dead-cell fraction,[11]; 0.3162 µM,0.0996
same,increase in dead-cell fraction,[11]; 1 µM,0.103
same,increase in dead-cell fraction,[11]; 3.162 µM,0.136
same,increase in dead-cell fraction,[12]; 0.0001 µM,0.0056
same,increase in dead-cell fraction,[12]; 0.0003162 µM,0.0103
same,increase in dead-cell fraction,[12]; 0.001 µM,-0.0029
same,increase in dead-cell fraction,[12]; 0.003162 µM,-0.0193
same,increase in dead-cell fraction,[12]; 0.01 µM,-0.0112
same,increase in dead-cell fraction,[12]; 0.03162 µM,0.132
same,increase in dead-cell fraction,[12]; 0.1 µM,0.106
same,increase in dead-cell fraction,[12]; 0.3162 µM,0.122
same,increase in dead-cell fraction,[12]; 1 µM,0.126
same,increase in dead-cell fraction,[13]; 0.001 µM,0.0107
same,increase in dead-cell fraction,[13]; 0.003162 µM,-0.0028
same,increase in dead-cell fraction,[13]; 0.01 µM,0.0035
same,increase in dead-cell fraction,[13]; 0.03162 µM,0.0081
same,increase in dead-cell fraction,[13]; 0.1 µM,0.0043
same,increase in dead-cell fraction,[13]; 0.3162 µM,0.0132
same,increase in dead-cell fraction,[13]; 1 µM,0.0255
same,increase in dead-cell fraction,[13]; 3.162 µM,0.0242
same,increase in dead-cell fraction,[13]; 10 µM,0.0292
same,increase in dead-cell fraction,[14]; 0.0001 µM,-0.0053
same,increase in dead-cell fraction,[14]; 0.0003162 µM,0.002
same,increase in dead-cell fraction,[14]; 0.001 µM,-0.0003
same,increase in dead-cell fraction,[14]; 0.003162 µM,-0.0311
same,increase in dead-cell fraction,[14]; 0.01 µM,0.0109
same,increase in dead-cell fraction,[14]; 0.03162 µM,0.0036
same,increase in dead-cell fraction,[14]; 0.1 µM,0.066
same,increase in dead-cell fraction,[14]; 0.3162 µM,0.128
same,increase in dead-cell fraction,[14]; 1 µM,0.088
same,increase in dead-cell fraction,[15]; 0.0001 µM,0.0041
same,increase in dead-cell fraction,[15]; 0.0003162 µM,-0.0036
same,increase in dead-cell fraction,[15]; 0.001 µM,0.0114
same,increase in dead-cell fraction,[15]; 0.003162 µM,0.0077
same,increase in dead-cell fraction,[15]; 0.01 µM,0.0009
same,increase in dead-cell fraction,[15]; 0.03162 µM,0.0391
same,increase in dead-cell fraction,[15]; 0.1 µM,0.0709
same,increase in dead-cell fraction,[15]; 0.3162 µM,0.103
same,increase in dead-cell fraction,[15]; 1 µM,0.164
same,increase in dead-cell fraction,[16]; 0.0001 µM,0.0217
same,increase in dead-cell fraction,[16]; 0.0003162 µM,-0.005
same,increase in dead-cell fraction,[16]; 0.001 µM,0.0178
same,increase in dead-cell fraction,[16]; 0.003162 µM,-0.0039
same,increase in dead-cell fraction,[16]; 0.01 µM,-0.0121
same,increase in dead-cell fraction,[16]; 0.03162 µM,0.0154
same,increase in dead-cell fraction,[16]; 0.1 µM,0.0477
same,increase in dead-cell fraction,[16]; 0.3162 µM,0.115
same,increase in dead-cell fraction,[16]; 1 µM,0.133
